How the values were obtained:
Splenic murine T cells = assay: aCD3/aCD28 stimulation of murine T cells in presence of UA, flow cytometry; type: cell-based
Procedure: Mitochondrial remodelling has been previously associated with alterations in T cell fate (Buck et al., 2016; Yu et al., 2020b). Given the observed dependency of the UA effect on CD8^+ T cells, the inventors wondered whether UA may also directly affect T cell fate commitment. Purified T cells from FVB mice were stimulated with aCD3/aCD28 beads to induce T cell differentiation into effector T cell subsets in the presence or absence of UA for up to 72 hours (FIG. 2A). […] Previously, a rare naïve-like subset of T cells with enhanced stemness capabilities, termed T memory stem cells (TSCM) has been identified (Gattinoni et al., 2009). TSCM are marked by extreme longevity, their ability to self-renew, and potential for immune reconstitution (Gattinoni et al., 2017) which translates into potent anti-tumor immunity. Phenotypically, TSCM represent a subset of minimally differentiated T cells, which share a CD44^loCD62L^hi phenotype with naïve T cells, but are phenotypically distinct by expressing high levels of Sca1 (Gattinoni et al., 2009). […] This was associated with reduced cyclin D1 expression (not shown), in line with previous observations that link TSCM reprogramming to halted proliferation (Gattinoni et al., 2009; Verma et al., 2021).
(§1) Splenic murine T cells were isolated from mice aged 6-20 weeks by negative selection with EasySep mouse T cell isolation kit (Stem cell) according to the manufacturer's instructions. To monitor T cell proliferation, purified T cells were loaded with CellTrace Violet (C34557 ThermoFisher Scientific). T cell activation was initiated using αCD3/CD28 activation beads (11456D; ThermoFisher Scientific) at a ratio of 25 μl dynabeads per 0.5×10^6 T-cells. Cells were activated with 25-50 μM Urolithin A (Tocris) or DMSO in T cell activation Medium (RPMI (ThermoFisher Scientific) 10% FBS (South America origin), 10 mM Hepes (Sigma), 1× Non-Essential Amino Acid, 1 mM Sodium Pyruvate, 50 μM B-Mercaptoethanol, 100 U/ml penicillin, 100 μg/ml streptomycin and 2 mM Glutamax (ThermoFisher Scientific) for the indicated durations. In selected experiments, cells were stimulated in the presence of inhibitors, namely TCF1i (ICG-001; SelleckChem; 10 μM) and PGC-1αi (SR-18292, Sigma-Aldrich; 10 μm,). For subsequent analysis, activating beads were magnetically removed prior antibody staining. For human T cells, peripheral blood mononuclear cells were purified with a Ficoll-Paque (GE healthcare) gradient. T cells were enriched with EasySep Human T Cell Isolation Kit (StemCell) and activated with dynabead Human T-Activator CD3/CD28 for T Cell Expansion and Activation Kit (11131D; ThermoFisher Scientific), similar to murine T cell stimulation. […]
For flow cytometric analysis of mitochondria and lysosomes 500 μl of Mitotracker Red (200 nM; ThermoFisher) or Lysotracker Red DND-99 (75 nM; ThermoFisher) were applied followed by surface staining. To study changes in mitochondrial membrane potential, Mitoprobe TMRM kit (ThermoFisher) was used according to the manufacturer's instructions. Cell proliferation was assessed by CellTrace Violet (Invitrogen, C34557) at a concentration of 5 μM according to manufacturer's instructions. For human samples, cells were stained as described above with Fixable Viability Dye-eF780, αCD95-BV421 (DX2; 562616), αCD62L-PE (DREG-56; 555544), αCCR7-AF700 (150503; 561143), αCD45RO-APC (UCHL; 559865), αCD45RA-FITC (HI100; 555488), αCD8-PE-CF594 (RPA-T8; 562282) and αCD4-BV786 (OKT4; 566806) from BD.

[1] = commercially-available supplements containing UA; cited from earlier work
human CD3^+ T cells = assay: aCD3/aCD28 stimulation of human T cells in presence of UA; type: cell-based
From the text: Finally, the inventors aimed to determine whether UA causes expansion of TSCM cells in human CD8^+ T cells. The inventors isolated human CD3^+ T cells from PBMCs of healthy donors and stimulated them with aCD3/aCD28 beads in vitro in the presence of UA (FIG. 6A). Indeed, UA increased the frequency of human TSCM cells based on the expression of CD45RA^+CCR7^HiCD62L^+CD95^+CD8^+ in five out of five individual donors (FIG. 6B).
as §1, with “gradient.” for “gradient. T cells were enriched with EasySep Human T Cell Isolation Kit (StemCell) and activated with dynabead Human T-Activator CD3/CD28 for T Cell Expansion and Activation Kit (11131D; ThermoFisher Scientific), similar to murine T cell stimulation.”
For flow cytometric analysis of mitochondria and lysosomes 500 μl of Mitotracker Red (200 nM; ThermoFisher) or Lysotracker Red DND-99 (75 nM; ThermoFisher) were applied followed by surface staining. […] Cell proliferation was assessed by CellTrace Violet (Invitrogen, C34557) at a concentration of 5 μM according to manufacturer's instructions. […]

APTK organoids = assay: APTK tumor organoids incubated with UA, flow cytometry
[2] = 48 hours in presence of UA, prior to ACT
[3] = CD62L+CD44-CD8+ T cells, 48 h, UA 25 μM
[4] = increasing concentrations of UA (25-50 μM)

O=c1oc2cc(O)ccc2c2ccc(O)cc12 [UA, Urolithin A]
TSCM formation, dependence on T cell activation (Splenic murine T cells): only formed in activated T cells | cyclin D1 expression (Splenic murine T cells): reduced | lysosome formation in CD8+ T cells (Splenic murine T cells; 6 h, UA 50 μM): enhanced | loss of mitochondrial content in T cell subsets (TSCM, TCM and TEFF) (Splenic murine T cells; 24 h): detected in all T cell subsets analyzed | number of CD44-CD62L+Sca1hi TSCM (Splenic murine T cells; 24 h, 48 h and 72 h after aCD3/aCD28 stimulation): significantly increased | CD95 expression of CD8+ T cells from OT-1 donors (Splenic murine T cells; [2]): enhanced | TSCM phenotype of CD8+ T cells from OT-1 donors (Splenic murine T cells; [2]): displayed a TSCM phenotype | TSCM formation in CD4+ cells (Splenic murine T cells; CD4+ cells): did not promote enhanced TSCM formation | frequency of TEM cells in CD4+ cells (Splenic murine T cells; CD4+ cells, later timepoints): enhanced frequency | naïve-like CD4+ cells (Splenic murine T cells; CD4+ cells, later timepoints): less | CD95 expression of TSCM (Splenic murine T cells; [3]): increased | mitochondrial membrane potential of TSCM (TMRM) (Splenic murine T cells; [3]): reduced | CD8+ T cell division (Splenic murine T cells; CellTrace Violet): restricted | differentiation into effector T cells (Granzyme B, IFNg expression) (Splenic murine T cells; T cells from FVB mice, aCD3/aCD28 beads, 48 h, UA vs DMSO): blocked | central memory cells (TCM) (Splenic murine T cells; aCD3/aCD28, up to 72 hours): reduction | frequency of effector memory cells (TEM) (Splenic murine T cells; aCD3/aCD28, up to 72 hours): remained unaltered | naïve CD44loCD62Lhi T cells (Splenic murine T cells; aCD3/aCD28, up to 72 hours): significant increase | mitochondrial content (MitoTracker Red) in CD8+ T cells (Splenic murine T cells; after 24 hours): loss of mitochondrial content in a dose-dependent manner | T cell death in vitro (Splenic murine T cells; in vitro): dose-dependent T cell death | PGC-1 expression in CD8+ T cells (Splenic murine T cells; prolonged UA administration in vitro, 48 h, 50 μM): marked upregulation | mitochondrial membrane potential in CD8+ T cells (Splenic murine T cells; within six hours, UA 50 μM): reduction | bioavailability profile in humans [1]: favorable bioavailability profile | safety in humans [1]: deemed safe | frequency of human TSCM cells (CD45RA+CCR7HiCD62L+CD95+CD8+) (human CD3^+ T cells; 48 h, UA 50 μM, five out of five individual donors): increased | TCF1 expression in human CD8+ T cells (human CD3^+ T cells; 48 h, intracellular staining): increased | mitochondrial membrane potential of human CD8+ T cells (human CD3^+ T cells; after 48 hours): decreased | MHC-I (antigen presentation) (APTK organoids; UA 25-50 μM, 48 h): marked upregulation | MitoTracker staining (APTK organoids; [4]): concomitant loss | formation of lysosomes (lysotracker) (APTK organoids; [4]): dose-dependent formation

— patent US20260069693A1, “UROLITHINS AND T-CELL MEDIATED IMMUNE RESPONSE” (priority 2022, published 2026)
